Consider 38 compounds from patent US12060347B2 (BRISTOL-MYERS SQUIBB COMPANY, priority 2016, dated 2024).

The target of this experiment is T1, human PAR4 (Homo sapiens, UniProt Q96RI0).
T1 construct: expressed in transfected cells; host or cells: HEK293 PAR4 Clone 1.2A (BMS Arctic ID 383940)
T1 sequence (Q96RI0 18-385): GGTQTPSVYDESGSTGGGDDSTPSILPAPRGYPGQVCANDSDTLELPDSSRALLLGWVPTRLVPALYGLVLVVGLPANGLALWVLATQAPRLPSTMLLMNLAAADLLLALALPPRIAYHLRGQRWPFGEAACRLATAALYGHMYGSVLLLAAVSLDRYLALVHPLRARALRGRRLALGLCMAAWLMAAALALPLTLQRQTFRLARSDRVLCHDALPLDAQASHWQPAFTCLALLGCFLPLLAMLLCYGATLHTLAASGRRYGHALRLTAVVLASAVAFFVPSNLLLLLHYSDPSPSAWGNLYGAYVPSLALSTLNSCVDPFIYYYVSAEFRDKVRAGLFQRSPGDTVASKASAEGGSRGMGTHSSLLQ
Nature of the experiment: PAR4 FLIPR assay: antagonism of agonist-peptide-induced calcium mobilization in PAR4-expressing HEK293 cells. The following applies: H-Ala-Phe(4-F)-[…]NH2-induced intracellular calcium mobilization, 11-point curves. The format is cell-based.

The IC50 is the concentration at which inhibition is half-maximal. As to `COc1cnc2c(-c3nc4c(C)c(F)c(OC)cc4s3)cc(CO)cc2n1` [Example 243, (8-(5-fluoro-6-methoxy-4-methylbenzo[d]thiazol-2-yl)-3-methoxyquinoxalin-6-yl) methanol], the half-inhibitory concentration (IC50) was 1.2 nM.

As for `COc1cnc2c(-c3nc4c(C)c(F)c(OC)cc4s3)cc(C(C)O)cc2n1` (centres unmarked) [Example 244, 1-(8-(5-fluoro-6-methoxy-4-methylbenzo[d]thiazol-2-yl)-3-methoxyquinoxalin-6-yl) ethanol], the IC50 turned out to be 2 nM.

For `COc1cnc2c(-c3nc4c(C)c(F)c(OC)cc4s3)cc(C(O)c3ccccc3)cc2n1` (centres unmarked) [Example 245, (8-(5-fluoro-6-methoxy-4-methylbenzo[d]thiazol-2-yl)-3-methoxyquinoxalin-6-yl) (phenyl)methanol], the IC50 came to 92 nM.

Take `COc1cnc2c(-c3nc4c(C)c(F)c(OC)cc4s3)cc(C(O)C3CC3)cc2n1` (centres unmarked) [Example 246, Cyclopropyl(8-(5-fluoro-6-methoxy-4-methylbenzo[d]thiazol-2-yl)-3-methoxyquinoxalin-6-yl)methanol]: the IC50 was 140 nM.

As to `Cc1cnc2c(-c3nc4c(C)cc(OCCNS(=O)(=O)c5ccc(F)cc5)cc4s3)cc(F)cc2n1` [Example 247, 4-fluoro-N-(2-((2-(7-fluoro-2-methylquinoxalin-5-yl)-4-methylbenzo[d]thiazol-6-yl)oxy)ethyl)benzenesulfonamide], the IC50 came out at 19 nM.

As for `COc1cnc2c(-c3nc4cc(F)c(OC(C)C)cc4s3)cc(CO)cc2n1` [Example 248, (8-(5-fluoro-6-isopropoxybenzo[d]thiazol-2-yl)-3-methoxyquinoxalin-6-yl)methanol], the IC50 amounted to 19 nM.

Take `COc1cnc2c(-c3nc4c(C)cc(OCCNS(=O)(=O)c5cccnc5)cc4s3)cc(Cl)cc2n1` [Example 249, N-(2-((2-(7-chloro-2-methoxyquinoxalin-5-yl)-4-methylbenzo[d]thiazol-6-yl)oxy)ethyl)pyridine-3-sulfonamide]: the IC50 was determined as 6.9 nM.

For the compound `CCOC(=O)COc1cc(C)c2nc(-c3cc(Cl)cc4nc(OC)cnc34)sc2c1` [Example 250, Ethyl 2-((2-(7-chloro-2-methoxyquinoxalin-5-yl)-4-methylbenzo[d]thiazol-6-yl)oxy) acetate], the IC50 turned out to be 31 nM.

`COc1cnc2c(-c3nc4c(C)cc(OCC(=O)O)cc4s3)cc(Cl)cc2n1` [Example 251, 2-((2-(7-chloro-2-methoxyquinoxalin-5-yl)-4-methylbenzo[d]thiazol-6-yl)oxy)acetic acid]: the IC50 worked out at 17 nM.

Take `COc1ccc(NC(=O)OCCOc2cc(C)c3nc(-c4cc(CO)cc5nc(OC)cnc45)sc3c2)cn1` [Example 252, 2-((2-(7-(hydroxymethyl)-2-methoxyquinoxalin-5-yl)-4-methylbenzo[d]thiazol-6-yl)oxy)ethyl (6-methoxypyridin-3-yl)carbamate]: the IC50 came out at 0.5 nM.

In the case of `COCc1cnc2c(-c3nc4ccc(OC)cc4s3)cc(C)cc2n1` [Example 253, 6-methoxy-2-(2-(methoxymethyl)-7-methylquinoxalin-5yl)benzo[d]thiazole], the IC50 came out at 0.6 nM.

On to `COCc1cnc2c(-c3nc4c(F)cc(OC)cc4s3)cc(C)cc2n1` [Example 254, 4-fluoro-6-methoxy-2-(2-(methoxymethyl)-7-methylquinoxalin-5-yl)benzo[d]thiazole], for which the IC50 turned out to be 1.5 nM.

For `CCOc1ccc2nc(-c3cc(C)cc4nc(COC)cnc34)sc2c1` [Example 255, 6-ethoxy-2-(2-(methoxymethyl)-7-methylquinoxalin-5-yl)benzo[d]thiazole], the concentration for half-maximal inhibition (IC50) was found to be 0.8 nM.

Regarding `COCc1cnc2c(-c3nc4ccccc4s3)cc(C)cc2n1` [Example 256, 2-(2-(methoxymethyl)-7-methylquinoxalin-5-yl)benzo[d]thiazole], the IC50 is 1.2 nM.

Take `COCc1cnc2c(-c3nc4c(F)cc(F)cc4s3)cc(C)cc2n1` [Example 257, 4,6-difluoro-2-(2-(methoxymethyl)-7-methylquinoxalin-5-yl)benzo[d]thiazole]: the concentration for half-maximal inhibition (IC50) came out at 2.1 nM.

As for `COCc1cnc2c(-c3nc4c(OC)cc(OC)cc4s3)cc(C)cc2n1` [Example 258, 4,6-dimethoxy-2-(2-(methoxymethyl)-7-methylquinoxalin-5-yl)benzo[d]thiazole], the IC50 was 2.8 nM.

`COCc1cnc2c(-c3nc4c(OC)cccc4s3)cc(C)cc2n1` [Example 259, 4-methoxy-2-(2-(methoxymethyl)-7-methylquinoxalin-5-yl)benzo[d]thiazole]: the IC50 came to 14 nM.

Take `COCc1cnc2c(-c3nc4c(Cl)cccc4s3)cc(C)cc2n1` [Example 260, 4-chloro-2-(2-(methoxymethyl)-7-methylquinoxalin-5-yl)benzo[d]thiazole]: the IC50 was 4.8 nM.

Consider `COCc1cnc2c(-c3nc4c(C)cccc4s3)cc(C)cc2n1` [Example 261, 2-(2-(methoxymethyl)-7-methylquinoxalin-5-yl)-4-methylbenzo[d]thiazole], for which the IC50 is 1.2 nM.

For `COCc1cnc2c(-c3nc4c(C)cc(OC(F)(F)F)cc4s3)cc(C)cc2n1` [Example 262, 2-(2-(methoxymethyl)-7-methylquinoxalin-5-yl)-4-methyl-6-(trifluoromethoxy)benzo[d]thiazole], the 50% inhibitory concentration (IC50) is 0.8 nM.

For the compound `COCc1cnc2c(-c3nc4c(C)cc(OC(F)F)cc4s3)cc(C)cc2n1` [Example 263, 6-(difluoromethoxy)-2-(2-(methoxymethyl)-7-methylquinoxalin-5-yl)-4-methylbenzo[d]thiazole], the IC50 is 0.8 nM.

`COCc1cnc2c(-c3nc4ccc(C(=O)OC)cc4s3)cc(C)cc2n1` [Example 264]: the 50% inhibitory concentration (IC50) was found to be 8.3 nM.

Turning to `COCc1cnc2c(-c3nc4c(Cl)cc(OC)c(F)c4s3)cc(C)cc2n1` [Example 265, 4-chloro-7-fluoro-6-methoxy-2-(2-(methoxymethyl)-7-methylquinoxalin-5-yl)benzo[d]thiazole], the IC50 is 6.8 nM.

With `COCc1cnc2c(-c3nc4c(Cl)cc(F)cc4s3)cc(C)cc2n1` [Example 266, 4-chloro-6-fluoro-2-(2-(methoxymethyl)-7-methylquinoxalin-5-yl)benzo[d]thiazole], the IC50 was found to be 2.2 nM.

With `COCc1cnc2c(-c3nc4c(F)c(F)c(OC)cc4s3)cc(C)cc2n1` [Example 267, 4,5-difluoro-6-methoxy-2-(2-(methoxymethyl)-7-methylquinoxalin-5-yl)benzo[d]thiazole], the IC50 is 0.8 nM.

Take `COCc1cnc2c(-c3nc4cc(Cl)c(OC)cc4s3)cc(C)cc2n1` [Example 268, 5-chloro-6-methoxy-2-(2-(methoxymethyl)-7-methylquinoxalin-5-yl)benzo[d]thiazole]: the concentration for half-maximal inhibition (IC50) worked out at 0.9 nM.

Regarding `COCc1cnc2c(-c3nc4c(OC)c(F)c(F)cc4s3)cc(C)cc2n1` [Example 269, 5,6-difluoro-4-methoxy-2-(2-(methoxymethyl)-7-methylquinoxalin-5-yl)benzo [d]thiazole], the IC50 stood at 3.6 nM.

For `COCc1cnc2c(-c3nc4c(OC)cc(F)cc4s3)cc(C)cc2n1` [Example 270, 6-fluoro-4-methoxy-2-(2-(methoxymethyl)-7-methylquinoxalin-5-yl)benzo[d]thiazole], the IC50 is 17 nM.

Regarding `COCc1cnc2c(-c3nc4c(OC)c(F)c(OC)cc4s3)cc(C)cc2n1` [Example 271, 5-fluoro-4,6-dimethoxy-2-(2-(methoxymethyl)-7-methylquinoxalin-5-yl)benzo[d]thiazole], the half-maximal inhibitory concentration (IC50) amounted to 1.5 nM.

With `COCc1cnc2c(-c3nc4ccc(F)cc4s3)cc(C)cc2n1` [Example 272, 6-fluoro-2-(2-(methoxymethyl)-7-methylquinoxalin-5-yl)benzo[d]thiazole], the IC50 stood at 3.2 nM.

In the case of `COCc1cnc2c(-c3nc4c(F)cccc4s3)cc(C)cc2n1` [Example 273, 4-fluoro-2-(2-(methoxymethyl)-7-methylquinoxalin-5-yl)benzo[d]thiazole], the IC50 came to 4.3 nM.

In the case of `COCc1cnc2c(-c3nc4ccc(Cl)cc4s3)cc(C)cc2n1` [Example 274, 6-chloro-2-(2-(methoxymethyl)-7-methylquinoxalin-5-yl)benzo[d]thiazole], the concentration for half-maximal inhibition (IC50) turned out to be 5.7 nM.

In the case of `COCc1cnc2c(-c3nc4c(Cl)cc(Cl)cc4s3)cc(C)cc2n1` [Example 275, 4,6-dichloro-2-(2-(methoxymethyl)-7-methylquinoxalin-5-yl)benzo[d]thiazole], the IC50 was determined as 0.9 nM.

Consider `COCc1cnc2c(-c3nc4cc(C)c(OC)cc4s3)cc(C)cc2n1` [Example 276, 6-methoxy-2-(2-(methoxymethyl)-7-methylquinoxalin-5-yl)-5-methylbenzo[d]thiazole], for which the IC50 turned out to be 1.2 nM.

As for `COCc1cnc2c(-c3nc4cc(F)c(OC)cc4s3)cc(C)cc2n1` [Example 277, 5-fluoro-6-methoxy-2-(2-(methoxymethyl)-7-methylquinoxalin-5-yl)benzo[d]thiazole], the half-inhibitory concentration (IC50) worked out at 9 nM.

`COc1cnc2c(-c3nc4c(F)c(F)c(OC)cc4s3)cc(C)cc2n1` [Example 278, 4,5-difluoro-6-methoxy-2-(2-methoxy-7-methylquinoxalin-5-yl)benzo[d]thiazole]: the 50% inhibitory concentration (IC50) was determined as 4.6 nM.

Turning to `COc1cnc2c(-c3nc4cc(C)c(OC)cc4s3)cc(C)cc2n1` [Example 279, 6-methoxy-2-(2-methoxy-7-methylquinoxalin-5-yl)-5-methylbenzo[d]thiazole], the IC50 is 18 nM.

Take `COc1cnc2c(-c3nc4cc(F)c(OC)cc4s3)cc(C)cc2n1` [Example 280, 5-fluoro-6-methoxy-2-(2-methoxy-7-methylquinoxalin-5-yl)benzo[d]thiazole]: the IC50 was found to be 4.3 nM.
